According to US20230047788A1, “COMPOSITIONS COMPRISING 5-CHOLESTEN-3, 25-DIOL, 3-SULFATE (25HC3S) OR PHARMACEUTICALLY ACCEPTABLE SALT THEREOF AND AT LEAST ONE CYCLIC OLIGOSACCHARIDE” (Virginia Commonwealth University, priority 2016, published 2023):
Like-named read-outs stand apart in the source and are kept apart here.

Key:
[1] = system: GI-ARS model (partial shielding irradiation); assay: Clinical signs and survival in rodent model of gastrointestinal acute radiation syndrome (GI-ARS); format: in vivo, C57BL/6J mice
Method: The subjects for the two studies outlined here were (A) Study 1: 20 male C57BL/6J mice (8 weeks of age; 23-28 g) and (B) Study 2: 16 male C57BL/6J mice (8 weeks of age; 23-28 g). Following arrival, all animals were subjected to a health assessment and evaluation was performed in accordance with the standard operating procedures and by technical staff working under the supervision of the clinical veterinarian. An acclimation period of at least 11 days was allowed between receipt of the animals and irradiation to accustom the animals to the laboratory environment.
A solution formulation of 25HC3S sodium salt and its respective vehicle was used for the study. The Vehicle was a solution of 4% (w/v) hydroxypropyl betadex in 75% (v/v) of 0.9% (w/v) sodium chloride and 25% (v/v) sterile water. 25HC3S sodium salt was pre-dissolved into the Vehicle solution to result in a drug concentration of 5 mg/mL. The 25HC3S solution was ready-to-use at the start of dosing. In Study 1, the vehicle was stored at 2-8° C. whereas the 25HC3S solution was stored at room temperature prior and throughout the study duration; in Study 2, both vehicle and 25HC3S solutions were stored at 2-8° C.
Partial shielding irradiation (PSI) exposure at a high radiation dose (>10Gy) is an established approach to mimic GI-ARS in mice. Animals were exposed to whole-body irradiation with partial shielding (Day 0) in a custom designed restrainer where their left pelvic limb was extended and maintained in position with an elastic band. The left pelvic limb was shielded with a cerrobend structure. Animals received a whole body irradiation dose with partial shielding of 15.78 Gy (LD50/22) for Study 1 whereas mice were exposed to 15.16 Gy (LD25/22) in Study 2. The dose rate of the ^60Co gamma source was fixed at approximately 60 cGy per minute. The in-life portion of both the studies after PSI was 22 days.
Study 1: Mice (N=20/group) were administered once daily with 25HC3S (or vehicle) for 7 consecutive days starting on the day following irradiation (Day 1) by subcutaneous injection between scapulas using a 27G needle attached to a syringe. The dose volume was 10 mL/kg for all dose routes and the dose was adjusted based on the most recent body weight. Study 2: Mice (N=16/group) were administered with 25HC3S (or vehicle) for a total of […]. Animals were given drug (or vehicle) once on the day following irradiation (Day 1) and once on Day 4 by subcutaneous injection between scapulas using a 27G needle attached to a syringe. The dose volume was 10 mL/kg for all dose routes and the dose was adjusted based on the most recent body weight.
Mortality checks were recorded concomitantly with the cage-side observations, during all phases of the study. Mortality checks for all animals were also recorded at least once during the night from Day 5 through Day 8. Clinical signs (ill health, behavioral changes, fur color/consistency changes etc.) were also recorded on all surviving animals twice daily throughout observation period (described in Table 10). Additional clinical observations were performed when deemed necessary. All observations were recorded as cage side clinical signs or detailed clinical examination when possible. A detailed clinical examination was performed on each animal at least as follows: prior to animal assignment, one day prior to irradiation (Day −1) then every 3 days throughout the observation period. […]

[2] = system: LPS endotoxin shock model; assay: Survival in rodent model of LPS endotoxin shock; format: in vivo, C57BL/6J mice; conditions: LPS 5 mg/kg iv; 50 mg/kg 25HC3S ip 2 hours prior to LPS; six days after LPS; N=10
Method: The subjects for the study were 20 male C57BL/6J mice (20-22 weeks of age, 27-35 g).
A solution formulation of 25HC3S and its respective vehicle was used for the study. The vehicle was a solution of 4% (w/v) hydroxypropyl betadex, 10% (w/v) dextrose, with 10 mM sodium phosphate buffer in sterile water. Vehicle was stored at 2-8° C. storage and placed at room temperature for 30 minutes prior to dosing.
25HC3S sodium salt was pre-dissolved into the vehicle solution to result in a drug concentration of 5 mg/mL. The 25HC3S solution was ready-to-use at the start of dosing. It was also stored at 2-8° C. storage and placed at room temperature for 30 minutes prior to dosing the mice.
50 mg/kg of 25HC3S in vehicle or vehicle alone (N=10/group) were administered to mice once by intraperitoneal injection 2 hours prior to LPS delivery. A semi-lethal dose of LPS (5 mg/kg) was given by intravenous injection to the tail vein in order to induce an acute inflammatory response that mimics systemic sepsis-like conditions.
Mice were monitored for survival for 6 days after 25HC3S and LPS treatments. Animal checks for mortality were performed twice daily during the 6 day observation period. Animals were examined for any altered clinical signs, including gross motor and behavioral activity, and observable changes in appearance. […]

[3] = dog, in vivo
Method: Injection routes of administration used were intramuscular, intravenous or subcutaneous. The following example is a representative injection study.
Beagle dogs (n=5/dose group) received a single intravenous bolus injection or a single subcutaneous injection. The parenteral solution that was tested included 25 mg/mL of 25HC3S sodium salt in vehicle (200 mg/mL hydroxypropyl betadex with 10 mM sodium phosphate buffers, in water). The intravenous dose level of 2.5 mg/kg was administered in a dose volume of 0.1 mL/kg whereas the subcutaneous injection dose level of 20 mg/kg was administered in a dose volume of 0.8 mL/kg. Whole blood samples were collected at pre-dose, 0.5, 1, 2, 4, 8, 12, 24, 32 and 48 hours (h) post dose and the resulting plasma samples underwent analyses to quantify 25HC3S levels. During the in-life period, animals were observed daily for mortality and moribundity with clinical examinations conducted daily.

For `C[C@H](CCCC(C)(C)O)[C@H]1CC[C@H]2[C@@H]3CC=C4C[C@@H](OS(=O)(=O)[O-])CC[C@]4(C)[C@H]3CC[C@]12C.[Na+]` [25HC3S, 5-cholesten-3, 25-diol, 3-sulfate], which Survival ([1]; Study 1, 15.78 Gy, by Day 7) is on record?
The Survival was 45%.

And the “mortality, treatment vs vehicle group” value ([1]; Study 1, 15.78 Gy, sc once daily for 7 days from Day 1)?
Its value is “not significant”.

What about the “average number of clinical signs/mice vs vehicle-treated group” value ([1]; Study 1, Days 5-22, animals that survived the entire in-life portion) of the same compound?
The value was “statistically lower”.

What about the “Survival improved by (vs vehicle)” value ([1]; Study 2, 15.16 Gy) of the same compound?
Its value is 18.75%.

What about the Survival ([1]; Study 2, 15.16 Gy, sc doses on Day 1 and Day 4, 50 mg/kg/dose) of the same compound?
Its Survival is 81.25%.

And the “mice that had died” value [2]?
The value was 40%.

And the “AUCall, Mean (SD)” value ([3]; iv)?
Its value is 489 (464) ng * hr/mL.

What about the Cmax ([3]; iv) of the same compound?
The Cmax was 439 ng/mL.

And the “Tmax, Mean (SD)” value ([3]; iv)?
Its value is 0.5 (0) hr.

What about the Cmax ([3]; iv, 2.5 mg/kg) of the same compound?
The Cmax was 439 ng/mL.

What about the “mean AUClast” value ([3]; iv, 2.5 mg/kg) of the same compound?
Its value is 478 ng·h/mL.

And the “plasma levels at 8h” value ([3]; iv, 2.5 mg/kg)?
Its value is “no observable levels in most animals (n=4)”.

What about the “time point of maximal concentration” value ([3]; iv, 2.5 mg/kg) of the same compound?
Its value is 0.5 h.

And the “AUCall, Mean (SD)” value ([3]; sc)?
Its value is 19676 (3716) ng * hr/mL.

What about the Cmax ([3]; sc) of the same compound?
Its Cmax is 3940 ng/mL.

And the “Tmax, Mean (SD)” value ([3]; sc)?
The value was 1.8 (1.3) hr.

What about the observed bioavailability ([3]; sc) of the same compound?
Its observed bioavailability is 0.7.

What about the AUClast ([3]; sc, 20 mg/kg) of the same compound?
Its AUClast is 19503 ng·h/mL.

And the Cmax ([3]; sc, 20 mg/kg)?
Its Cmax is 3936 ng/mL.
